Results: ChEMBL document CHEMBL5303573, “Mapping human microbiome drug metabolism by gut bacteria and their genes” (Nature, 2019)

What was measured:
[1] = The drug is tested on Collinsella aerofaciens strain: ATCC25986 for biotransformation. The drug concentrations were measured before and after a 12-h incubation by liquid-chromatography-coupled mass spectrometry (LC–MS); conditions: 2 µM
[2] = The drug is tested on Collinsella intestinalis strain: DSM13280 for biotransformation. The drug concentrations were measured before and after a 12-h incubation by liquid-chromatography-coupled mass spectrometry (LC–MS); conditions: 2 µM
[3] = The drug is tested on Bacteroides dorei strain: DSM17855 for biotransformation. The drug concentrations were measured before and after a 12-h incubation by liquid-chromatography-coupled mass spectrometry (LC–MS); conditions: phocaeicola dorei, 2 µM
[4] = The drug is tested on Bacteroides fragilis strain: ATCC43859 for biotransformation. The drug concentrations were measured before and after a 12-h incubation by liquid-chromatography-coupled mass spectrometry (LC–MS); conditions: 2 µM
[5] = The drug is tested on Bacteroides pectinophilus strain: ATCC43243 for biotransformation. The drug concentrations were measured before and after a 12-h incubation by liquid-chromatography-coupled mass spectrometry (LC–MS); conditions: 2 µM
[6] = The drug is tested on Odoribacter splanchnicus strain: fecal isolate for biotransformation. The drug concentrations were measured before and after a 12-h incubation by liquid-chromatography-coupled mass spectrometry (LC–MS); conditions: 2 µM
[7] = The drug is tested on Blautia hansenii strain: DSM20583 for biotransformation. The drug concentrations were measured before and after a 12-h incubation by liquid-chromatography-coupled mass spectrometry (LC–MS); conditions: 2 µM
[8] = The drug is tested on Clostridium scindens strain: ATCC35704 for biotransformation. The drug concentrations were measured before and after a 12-h incubation by liquid-chromatography-coupled mass spectrometry (LC–MS); conditions: 2 µM
[9] = The drug is tested on Coprococcus comes strain: ATCC27758 for biotransformation. The drug concentrations were measured before and after a 12-h incubation by liquid-chromatography-coupled mass spectrometry (LC–MS); assay type: ADME; parameters: dose 2 uM, timepoint 0 vs 12 hours; conditions: 2 µM
[10] = The drug is tested on Enterococcus faecalis strain: V583 for biotransformation. The drug concentrations were measured before and after a 12-h incubation by liquid-chromatography-coupled mass spectrometry (LC–MS); conditions: 2 µM
[11] = The drug is tested on Eubacterium hallii strain: DSM3353 for biotransformation. The drug concentrations were measured before and after a 12-h incubation by liquid-chromatography-coupled mass spectrometry (LC–MS); conditions: anaerobutyricum hallii, 2 µM
[12] = The drug is tested on Eubacterium rectale strain: ATCC33656 for biotransformation. The drug concentrations were measured before and after a 12-h incubation by liquid-chromatography-coupled mass spectrometry (LC–MS); conditions: agathobacter rectalis, 2 µM
[13] = The drug is tested on Eubacterium ventriosum strain: ATCC27560 for biotransformation. The drug concentrations were measured before and after a 12-h incubation by liquid-chromatography-coupled mass spectrometry (LC–MS); assay type: ADME; parameters: dose 2 uM, timepoint 0 vs 12 hours; conditions: 2 µM
[14] = The drug is tested on Ruminococcus lactaris strain: ATCC29176 for biotransformation. The drug concentrations were measured before and after a 12-h incubation by liquid-chromatography-coupled mass spectrometry (LC–MS); conditions: 2 µM
[15] = The drug is tested on Subdoligranulum variabile strain: DSM15176 for biotransformation. The drug concentrations were measured before and after a 12-h incubation by liquid-chromatography-coupled mass spectrometry (LC–MS); conditions: 2 µM
[16] = The drug is tested on Escherichia coli strain: BW25113 for biotransformation. The drug concentrations were measured before and after a 12-h incubation by liquid-chromatography-coupled mass spectrometry (LC–MS); conditions: 2 µM
[17] = segatella copri, 12 h, 2 µM
Description: The drug is tested on Prevotella copri strain: DSM18205 for biotransformation. The drug concentrations were measured before and after a 12-h incubation by liquid-chromatography-coupled mass spectrometry (LC–MS)

[18] = The drug is tested on Bacteroides fragilis strain: HMW610 for biotransformation. The drug concentrations were measured before and after a 12-h incubation by liquid-chromatography-coupled mass spectrometry (LC–MS); conditions: 2 µM
[19] = enterocloster bolteae, 12 h, 2 µM
Description: The drug is tested on Clostridium bolteae strain: ATCCBAA-613 for biotransformation. The drug concentrations were measured before and after a 12-h incubation by liquid-chromatography-coupled mass spectrometry (LC–MS)

[20] = The drug is tested on Bacteroides cellulosilyticus strain: DSM14838 for biotransformation. The drug concentrations were measured before and after a 12-h incubation by liquid-chromatography-coupled mass spectrometry (LC–MS); conditions: 2 µM

## CN1CCC(OC(c2ccccc2)c2ccccc2)CC1
[1]
  Bacterial Biotransformation: Compound NOT metabolized
[2]
  Bacterial Biotransformation: Compound NOT metabolized
[3]
  Bacterial Biotransformation: Compound NOT metabolized
[4]
  Bacterial Biotransformation: Compound NOT metabolized
[5]
  Bacterial Biotransformation: Compound NOT metabolized
[6]
  Bacterial Biotransformation: Compound NOT metabolized
[7]
  Bacterial Biotransformation: Compound NOT metabolized
[8]
  Bacterial Biotransformation: Compound NOT metabolized
[9]
  Bacterial Biotransformation: Compound NOT metabolized
[10]
  Bacterial Biotransformation: Compound NOT metabolized
[11]
  Bacterial Biotransformation: Compound NOT metabolized
[12]
  Bacterial Biotransformation: Compound NOT metabolized
[13]
  Bacterial Biotransformation: Compound NOT metabolized
[14]
  Bacterial Biotransformation: Compound NOT metabolized
[15]
  Bacterial Biotransformation: Compound NOT metabolized
[16]
  Bacterial Biotransformation: Compound NOT metabolized
[17]
  Bacterial Biotransformation: Compound NOT metabolized

## CCN(CC)C(=O)C1(c2ccccc2)CC1CN (stereo not drawn)
[1]
  Bacterial Biotransformation: Compound NOT metabolized
[2]
  Bacterial Biotransformation: Compound NOT metabolized
[3]
  Bacterial Biotransformation: Compound NOT metabolized
[18]
  Bacterial Biotransformation: Compound NOT metabolized
[4]
  Bacterial Biotransformation: Compound NOT metabolized
[5]
  Bacterial Biotransformation: Compound NOT metabolized
[6]
  Bacterial Biotransformation: Compound NOT metabolized
[7]
  Bacterial Biotransformation: Compound NOT metabolized
[8]
  Bacterial Biotransformation: Compound NOT metabolized
[9]
  Bacterial Biotransformation: Compound NOT metabolized
[10]
  Bacterial Biotransformation: Compound NOT metabolized
[11]
  Bacterial Biotransformation: Compound NOT metabolized
[12]
  Bacterial Biotransformation: Compound NOT metabolized
[13]
  Bacterial Biotransformation: Compound NOT metabolized
[14]
  Bacterial Biotransformation: Compound NOT metabolized
[15]
  Bacterial Biotransformation: Compound NOT metabolized
[16]
  Bacterial Biotransformation: Compound NOT metabolized
[17]
  Bacterial Biotransformation: Compound NOT metabolized
[19]
  Bacterial Biotransformation: Compound NOT metabolized

## CC1OC(OC2C(O)CC(OC3C(O)CC(OC4CCC5(C)C(CCC6C5CCC5(C)C(C7=CC(=O)OC7)CCC65O)C4)OC3C)OC2C)CC(O)C1O (stereo not drawn)
[1]
  Bacterial Biotransformation: Compound NOT metabolized
[2]
  Bacterial Biotransformation: Compound NOT metabolized
[3]
  Bacterial Biotransformation: Compound metabolized
[18]
  Bacterial Biotransformation: Compound metabolized
[4]
  Bacterial Biotransformation: Compound metabolized
[5]
  Bacterial Biotransformation: Compound NOT metabolized
[6]
  Bacterial Biotransformation: Compound metabolized
[7]
  Bacterial Biotransformation: Compound metabolized
[8]
  Bacterial Biotransformation: Compound metabolized
[9]
  Bacterial Biotransformation: Compound NOT metabolized
[10]
  Bacterial Biotransformation: Compound NOT metabolized
[11]
  Bacterial Biotransformation: Compound NOT metabolized
[12]
  Bacterial Biotransformation: Compound NOT metabolized
[13]
  Bacterial Biotransformation: Compound NOT metabolized
[14]
  Bacterial Biotransformation: Compound NOT metabolized
[15]
  Bacterial Biotransformation: Compound NOT metabolized
[16]
  Bacterial Biotransformation: Compound NOT metabolized
[17]
  Bacterial Biotransformation: Compound metabolized
[19]
  Bacterial Biotransformation: Compound NOT metabolized

## Br.COc1ccc2c(c1)[C@]13CCCC[C@@H]1[C@H](C2)N(C)CC3.O [DEXTROMETHORPHAN HYDROBROMIDE]
[1]
  Bacterial Biotransformation: Compound NOT metabolized
[2]
  Bacterial Biotransformation: Compound NOT metabolized
[3]
  Bacterial Biotransformation: Compound NOT metabolized
[4]
  Bacterial Biotransformation: Compound NOT metabolized
[5]
  Bacterial Biotransformation: Compound NOT metabolized
[7]
  Bacterial Biotransformation: Compound NOT metabolized
[8]
  Bacterial Biotransformation: Compound NOT metabolized
[9]
  Bacterial Biotransformation: Compound NOT metabolized
[10]
  Bacterial Biotransformation: Compound NOT metabolized
[11]
  Bacterial Biotransformation: Compound NOT metabolized
[12]
  Bacterial Biotransformation: Compound NOT metabolized
[13]
  Bacterial Biotransformation: Compound NOT metabolized
[14]
  Bacterial Biotransformation: Compound NOT metabolized
[15]
  Bacterial Biotransformation: Compound NOT metabolized
[16]
  Bacterial Biotransformation: Compound NOT metabolized
[19]
  Bacterial Biotransformation: Compound NOT metabolized

## CC(C)N(CCC(C(N)=O)(c1ccccc1)c1ccccn1)C(C)C.O=P(O)(O)O (stereo not drawn) [DISOPYRAMIDE PHOSPHATE]
[1]
  Bacterial Biotransformation: Compound NOT metabolized
[2]
  Bacterial Biotransformation: Compound NOT metabolized
[20]
  Bacterial Biotransformation: Compound NOT metabolized
[3]
  Bacterial Biotransformation: Compound NOT metabolized
[18]
  Bacterial Biotransformation: Compound NOT metabolized
[4]
  Bacterial Biotransformation: Compound NOT metabolized
[5]
  Bacterial Biotransformation: Compound NOT metabolized
[6]
  Bacterial Biotransformation: Compound NOT metabolized
[8]
  Bacterial Biotransformation: Compound NOT metabolized
[9]
  Bacterial Biotransformation: Compound NOT metabolized
[10]
  Bacterial Biotransformation: Compound NOT metabolized
[11]
  Bacterial Biotransformation: Compound NOT metabolized
[12]
  Bacterial Biotransformation: Compound NOT metabolized
[13]
  Bacterial Biotransformation: Compound NOT metabolized
[14]
  Bacterial Biotransformation: Compound NOT metabolized
[15]
  Bacterial Biotransformation: Compound NOT metabolized
[17]
  Bacterial Biotransformation: Compound NOT metabolized
[19]
  Bacterial Biotransformation: Compound NOT metabolized

## CN(C)CCOC(C)(c1ccccc1)c1ccccn1.O=C(O)CCC(=O)O (stereo not drawn) [DOXYLAMINE SUCCINATE]
[1]
  Bacterial Biotransformation: Compound NOT metabolized
[2]
  Bacterial Biotransformation: Compound NOT metabolized
[20]
  Bacterial Biotransformation: Compound NOT metabolized
[3]
  Bacterial Biotransformation: Compound NOT metabolized
[18]
  Bacterial Biotransformation: Compound NOT metabolized
[4]
  Bacterial Biotransformation: Compound NOT metabolized
[5]
  Bacterial Biotransformation: Compound NOT metabolized
[6]
  Bacterial Biotransformation: Compound NOT metabolized
[8]
  Bacterial Biotransformation: Compound NOT metabolized
[9]
  Bacterial Biotransformation: Compound NOT metabolized
[10]
  Bacterial Biotransformation: Compound NOT metabolized
[11]
  Bacterial Biotransformation: Compound NOT metabolized
[13]
  Bacterial Biotransformation: Compound NOT metabolized
[14]
  Bacterial Biotransformation: Compound NOT metabolized
[15]
  Bacterial Biotransformation: Compound NOT metabolized
[16]
  Bacterial Biotransformation: Compound NOT metabolized
[17]
  Bacterial Biotransformation: Compound NOT metabolized
[19]
  Bacterial Biotransformation: Compound NOT metabolized

## CN1C(=O)CC(C)(c2ccccc2)C1=O (stereo not drawn) [METHSUXIMIDE]
[1]
  Bacterial Biotransformation: Compound NOT metabolized
[2]
  Bacterial Biotransformation: Compound NOT metabolized
[20]
  Bacterial Biotransformation: Compound NOT metabolized
[3]
  Bacterial Biotransformation: Compound metabolized
[4]
  Bacterial Biotransformation: Compound NOT metabolized
[6]
  Bacterial Biotransformation: Compound NOT metabolized
[8]
  Bacterial Biotransformation: Compound NOT metabolized
[9]
  Bacterial Biotransformation: Compound NOT metabolized
[10]
  Bacterial Biotransformation: Compound NOT metabolized
[11]
  Bacterial Biotransformation: Compound NOT metabolized
[13]
  Bacterial Biotransformation: Compound NOT metabolized
[15]
  Bacterial Biotransformation: Compound NOT metabolized
[16]
  Bacterial Biotransformation: Compound metabolized
[17]
  Bacterial Biotransformation: Compound NOT metabolized
[19]
  Bacterial Biotransformation: Compound NOT metabolized

## CCCN1C[C@H](CSC)C[C@@H]2c3cccc4[nH]cc(c34)C[C@H]21.CS(=O)(=O)O [PERGOLIDE MESYLATE]
[1]
  Bacterial Biotransformation: Compound NOT metabolized
[2]
  Bacterial Biotransformation: Compound NOT metabolized
[3]
  Bacterial Biotransformation: Compound NOT metabolized
[4]
  Bacterial Biotransformation: Compound NOT metabolized
[5]
  Bacterial Biotransformation: Compound NOT metabolized
[7]
  Bacterial Biotransformation: Compound NOT metabolized
[8]
  Bacterial Biotransformation: Compound NOT metabolized
[9]
  Bacterial Biotransformation: Compound NOT metabolized
[10]
  Bacterial Biotransformation: Compound NOT metabolized
[11]
  Bacterial Biotransformation: Compound NOT metabolized
[12]
  Bacterial Biotransformation: Compound NOT metabolized
[13]
  Bacterial Biotransformation: Compound NOT metabolized
[15]
  Bacterial Biotransformation: Compound NOT metabolized
[16]
  Bacterial Biotransformation: Compound NOT metabolized
[17]
  Bacterial Biotransformation: Compound NOT metabolized
[19]
  Bacterial Biotransformation: Compound NOT metabolized
